“And” between values parts separate entries of the source, which are not always exact repeats. Equal values may be shown once. Read-outs that look alike come from different tables or passages of the source.
Tests used:
[1] = test system: GBM8 human glioblastoma cells; assay: GBM8 viability assay (Cell Titer Glo); assay type: cell-based; details: 72 h, luminescence
Method in brief: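 Patient-derived GBM4 and GBM8 neurosphere cells, 4000 per well in EGF/bFGF/heparin-supplemented NeuroCult medium, were exposed to compound (added in 1% DMSO solution) for 3 days at 37° C. Growth was read by CellTiter-Glo luminescence versus DMSO wells, and IC50s came from 4-parameter fits of serial dilutions.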

[2] = test system: GBM4 human glioblastoma cells; assay: GBM4 viability assay (Cell Titer Glo); assay type: cell-based
Method: Cell culture medium was prepared from a NSA proliferation kit (Neurocult) and NeuroCult supplements (Stemcell Tech Cat. #05751) and treated with 20 μL of 10 μg/mL rh EGF, 10 μL of 10 μg/mL rh bFGF and 10 μL of 0.2% Heparin. In this medium, human glioblastoma cells were cultured in ultra-low attachment tissue culture flasks until 1×10^6 cells ml was achieved (GBM4 and GBM8 are distinct neurosphere cell cultures derived from these human patient tissues). GBM4 and GBM8 cells were dissociated and 10 mL of media containing 4000 human glioblastoma cells per 90 μL were transferred to an ultra-low binding 96-well plate and incubated at 37° C. overnight. On the following day, 10 μL of a 1% DMSO solution of test compound in assay medium was added to wells containing the cell suspension and the mixture incubated at 37° C. for 3 days. At this time, the plate was removed from the incubator and allowed to reach room temperature. After about 30 minutes, 50 μL of Cell Titer Glo solution was added to each well and the plate shaken for 1 minute at low speed. After 10 minutes luminescence was recorded using a Tecan Safire2 reader.
Reduction in luminescence compared to DMSO only control wells was used to determine the percentage inhibition of cell growth. IC50s were calculated using the % inhibition of luminescence for serial dilutions of compounds fitted to a 4-parameter fit within the Prism (San Diego) curve fitting program. Tables 1 (compounds 3-188) and 2 (compounds 190-212) show the GBM4 IC50 and GBM8 IC50 for compounds described herein.

[3] = test system: Human GBM8 glioblastoma flank tumor; assay: Tumor growth inhibition in mouse flank tumor model, GBM8; assay type: in vivo; details: NSG mice, temozolomide orally plus radiation 1 Gy
Method: (§1) The animals were fed ad libitum water (reverse osmosis, 1 ppm Cl) and NIH 31 Modified and Irradiated Lab Diet® consisting of 18.0% crude protein. 5.0% crude fat, and 5.0% crude fiber. The mice were housed on irradiated Enrich-o'Cobs™ bedding in static microisolators on a 12-hour light cycle at 20-22° C. (68-72° F.) and 40-60% humidity.
(§2) Human GBM4 or GBM8 glioblastoma cell lines were maintained in Complete NeuroCult Proliferation Medium containing 20 ng/mL EGF, 10 ng/mL bFGF and 2 μg/mL Heparin. The cells were cultured in ultra low attachment T75 flask (Corning REF-3814) and the resulting neurospheres were dissociated every 4-6 days using the NeuroCult Chemical Dissociation kit (Stemcell Technologies Cat #05707). Cell cultures were maintained in tissue culture flasks in a humidified incubator at 37° C., in an atmosphere of 5% CO2 and 95% air. Cell samples were collected one passage prior to cell implant and preserved in freezing media.
(§3) Cells used for implantation were harvested during log phase growth and resuspended in cold PBS containing in 50% Matrigel™ (BD Biosciences). Tumor growth was initiated on Day 1 by subcutaneous injection of GBM4 cells into the right flank of each mouse with 1×10^7 tumor cells (0.1 mL cell suspension) and tumor growth was monitored in four groups (n=8) beginning on Day 12. Groups for treatment included group 1 (vehicle), group 2 (test Olig2 inhibitor), group 3 (treatment with temozolomide and radiation) and group 4 (test Olig2 inhibitor combined with temozolomide and radiation). The tumors were measured with a caliper in two dimensions to monitor size. Tumor size was calculated using the formula. Tumor Volume (mm^3)=w^2×½: where w=width and l=length, in mm, of a tumor. Tumor weight may be estimated with the assumption that 1 mg is equivalent to 1 mm^3 of tumor volume Tumors were measured with a caliper twice weekly for the duration of the study Temozolomide (Merck & Co., Lot No. L046487) was administered orally at doses of 5 mg/kg or 10 mg/Kg). Radiation was adminstered with a Faxitron model CP-160 X-ray system. Each animal was immobilized in a live restrainer. Therapy was administered for 1.3 min at 160 KV and 6.0 mA, providing a dose of 1 gray (Gy) for each animal.
The study endpoint was a tumor volume of 2000 mm^3 or Day 152, whichever came first. Each animal was euthanized for tumor progression (TP) when its tumor reached the volume endpoint. The time to endpoint (TTE) for each animal was calculated with the following equation: […]
The data set is comprised of the first observation that exceeded the study endpoint volume and the three consecutive observations that immediately preceded the attainment of the endpoint volume. […] In instances in which the log-transformed calculated TTE preceded the day prior to reaching endpoint or exceeded the day of reaching tumor volume endpoint, a linear interpolation was performed to approximate the TTE. Any animal determined to have died from treatment-related (TR) causes was assigned a TTE value equal to the day of death. […]
Treatment outcome was evaluated from tumor growth delay (TGD), which was defined as the increase in the median TTE for a treatment group compared to the control group: TGD=T−C, expressed in days, or as a percentage of the median TTE of the control group: TGD(%)=T−C/C×100 • T=median TTE for a treatment group, • C=median TTE for the control group.

[4] = test system: Human GBM4 glioblastoma flank tumor; assay: Tumor growth inhibition in mouse flank tumor model, GBM4; assay type: in vivo; details: NSG mice, temozolomide orally plus radiation 1 Gy
Method: as §1, §2
as §3, with “Tumor Volume (mm^3)=w^2×½: where w=width and l=length, in mm, of a tumor.” left out, “Radiation was adminstered with a Faxitron model CP-160 X-ray system. Each animal was immobilized in a live restrainer. Therapy was administered for 1.3 min at 160 KV and 6.0 mA, providing a dose of 1 gray (Gy) for each animal.” left out
The study endpoint was a tumor volume of 2000 mm^3 or Day 152, whichever came first. […] The time to endpoint (TTE) for each animal was calculated with the following equation: […]

[5] = 72 h, Table 1, 3 days incubation, luminescence, read-out: GBM4 IC50
[6] = Table 3, GBM4 cells, read-out: GBM4 IC50 (Cytotoxicity)

Cc1cc(NCCCN(C)C)nc(NC(=O)Nc2ccc3ccccc3c2)n1 [Compound 3, 1-(4-((3-(dimethylamino)propyl)amino)-6-methylpyrimidin-2-yl)-3-(naphthalen-2-yl)urea]
IC50 ([1]; Table 1, 3 days incubation): < 0.5 µM | IC50 [2, 5]: < 0.5 µM

Cc1cc(NCCCN)nc(NC(=O)Nc2ccc3ccccc3c2)n1 [Compound 4, 1-(4-((3-aminopropyl)amino)-6-methylpyrimidin-2-yl)-3-(naphthalen-2-yl)urea]
IC50 ([1]; Table 1, 3 days incubation): < 0.5 µM | IC50 [2, 5]: < 0.5 µM

CCNc1cc(C)nc(NC(=O)Nc2ccc3ccccc3c2)n1 [Compound 19]
IC50 ([1]; Table 1, 3 days incubation): < 0.5 µM | IC50 [2, 6]: 0.06 µM

CC(=O)NCCNc1cc(C)nc(NC(=O)Nc2ccc3ccccc3c2)n1 [Compound 35, N-(2-((6-methyl-2-(3-(naphthalen-2-yl)ureido)pyrimidin-4-yl)amino)ethyl)acetamide]
IC50 ([1]; Table 1, 3 days incubation): < 0.5 µM | IC50 [2, 6]: 0.14 µM

Cc1cc(NCCNS(C)(=O)=O)nc(NC(=O)Nc2ccc3ccccc3c2)n1 [Compound 36, N-(2-((6-methyl-2-(3-(naphthalen-2-yl)ureido)pyrimidin-4-yl)amino)ethyl)methanesulfonamide]
IC50 ([1]; Table 1, 3 days incubation): < 0.5 µM | IC50 [2, 6]: 0.04 µM

CC(C)c1cc(NCCCN(C)C)nc(NC(=O)Nc2ccc3ccccc3c2)n1 [Compound 188, 1-(4-((3-(dimethylamino)propyl)amino)-6-isopropylpyrimidin-2-yl)-3-(naphthalen-2-yl)urea]
IC50 ([1]; Table 1, 3 days incubation): 0.5 to 5 µM

CC(C)c1cc(N)nc(NC(=O)Nc2ccc3ccccc3c2)n1 [Compound 190, 1-(4-amino-6-isopropylpyrimidin-2-yl)-3-(naphthalen-2-yl)urea]
IC50 ([1]; Table 2, 3 days incubation): 5 to 30 µM

CNCCCNc1cc(C(C)C)nc(NC(=O)Nc2ccc3ccccc3c2)n1 [Compound 192, 1-(4-isopropyl-6-((3-(methylamino)propyl)amino)pyrimidin-2-yl)-3-(naphthalen-2-yl)urea]
IC50 ([1]; Table 2, 3 days incubation): 0.5 to 5 µM

CC(C)c1cc(NCCCN(C)C)nc(NC(=O)Nc2ccc(OC(F)(F)F)cc2)n1 [Compound 194, 1-(4-((3-(dimethylamino)propyl)amino)-6-isopropylpyrimidin-2-yl)-3-(4-(trifluoromethoxy)phenyl)urea]
IC50 ([1]; Table 2, 3 days incubation): 0.5 to 5 µM

CC(C)c1cc(N)nc(NC(=O)Nc2ccc(OC(F)(F)F)cc2)n1 [Compound 196, 1-(4-amino-6-isopropylpyrimidin-2-yl)-3-(4-(trifluoro-methoxy)phenyl)urea]
IC50 ([1]; Table 2, 3 days incubation): 0.5 to 5 µM

CNCCCNc1cc(C(C)C)nc(NC(=O)Nc2ccc(OC(F)(F)F)cc2)n1 [Compound 198, 1-(4-isopropyl-6-((3-(methylamino)propyl)amino)pyrimidin-2-yl)-3-(4-(trifluoromethoxy)phenyl)urea]
IC50 ([1]; Table 2, 3 days incubation): 0.5 to 5 µM

CC(C)c1cc(NO)nc(NC(=O)Nc2ccc(OC(F)(F)F)cc2)n1 [Compound 199, 1-(4-(hydroxyamino)-6-isopropylpyrimidin-2-yl)-3-(4-(trifluoromethoxy)phenyl)urea]
IC50 ([1]; Table 2, 3 days incubation): 0.5 to 5 µM

CN(C)CCCNc1cc(C2CC2)nc(NC(=O)Nc2ccc(Cl)c(Cl)c2)n1 [Compound 204, 1-(4-cyclopropyl-6-((3-(dimethylamino)propyl)amino)-pyrimidin-2-yl)-3-(3,4-dichlorophenyl)urea]
IC50 ([1]; Table 2, 3 days incubation): 0.5 to 5 µM

CNCCCNc1cc(C2CC2)nc(NC(=O)Nc2ccc(Cl)c(Cl)c2)n1 [Compound 206, 1-(4-cyclopropyl-6-((3-(methylamino)propyl)amino)pyrimidin-2-yl)-3-(3,4-dichlorophenyl)urea]
IC50 ([1]; Table 2, 3 days incubation): 5 to 30 µM

O=C(Nc1ccc(Cl)c(Cl)c1)Nc1nc(NO)cc(C2CC2)n1 [Compound 207, 1-(4-cyclopropyl-6-(hydroxyamino)pyrimidin-2-yl)-3-(3,4-dichlorophenyl)urea]
IC50 ([1]; Table 2, 3 days incubation): 0.5 to 5 µM

CN(C)CCCNc1cc(C2CC2)nc(NC(=O)Nc2ccc(OC(F)(F)F)cc2)n1 [Compound 209, 1-(4-cyclopropyl-6-((3-(dimethylamino)propyl)amino)-pyrimidin-2-yl)-3-(4-(trifluoromethoxy)phenyl)urea]
IC50 ([1]; Table 2, 3 days incubation): 0.5 to 5 µM

CNCCCNc1cc(C2CC2)nc(NC(=O)Nc2ccc(OC(F)(F)F)cc2)n1 [Compound 211, 1-(4-cyclopropyl-6-((3-(methylamino)propyl)amino)pyrimidin-2-yl)-3-(4-(trifluoromethoxy)phenyl)urea]
IC50 ([1]; Table 2, 3 days incubation): 0.5 to 5 µM

O=C(Nc1ccc(OC(F)(F)F)cc1)Nc1nc(NO)cc(C2CC2)n1 [Compound 212, 1-(4-cyclopropyl-6-(hydroxyamino)pyrimidin-2-yl)-3-(4-(trifluoromethoxy)phenyl)urea]
IC50 ([1]; Table 2, 3 days incubation): 0.5 to 5 µM

Cn1nnc2c(C(N)=O)ncn2c1=O [Temozolomide, reference compound]
Temozolomide + radiation (median TTE) [3]: 86.2 days and 78 days | Temozolomide + radiation (median TTE) [4]: 116.3 days

Source: US12145913B2, “Inhibition of Olig2 activity” (Curtana Pharmaceuticals, Inc., priority 2016, dated 2024)
